Results published in patent US9932314B2, “Pyrazole compounds and their use as T-type calcium channel blockers” (IDORSIA PHARMACEUTICALS LTD, priority 2015, dated 2018).

Molecular target: T1, voltage-dependent T-type calcium channel subunit alpha-1G (Cav3.2) (Homo sapiens, UniProt O95180)
T1 construct: expressed in transfected cells; host or cells: HEK293
Assay: FLIPR calcium flux assay, HEK293 cells recombinantly expressing Cav3.2
Type: cell-based
Settings: Cav3.2-channel, Fluo-4-AM, 3 min incubation, stimulation with 10 mM CaCl2
Method in brief: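 Calcium influx was triggered by adding CaCl2 to 10 mM final, 3 min after compounds in tetraethylammonium-based buffer, pH 7.2, reached Fluo-4-AM-loaded recombinant HEK293 cells. The integrated kinetic fluorescence signal per concentration gave concentration-response curves by non-linear sigmoidal regression.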

T1 sequence (O95180 whole entry): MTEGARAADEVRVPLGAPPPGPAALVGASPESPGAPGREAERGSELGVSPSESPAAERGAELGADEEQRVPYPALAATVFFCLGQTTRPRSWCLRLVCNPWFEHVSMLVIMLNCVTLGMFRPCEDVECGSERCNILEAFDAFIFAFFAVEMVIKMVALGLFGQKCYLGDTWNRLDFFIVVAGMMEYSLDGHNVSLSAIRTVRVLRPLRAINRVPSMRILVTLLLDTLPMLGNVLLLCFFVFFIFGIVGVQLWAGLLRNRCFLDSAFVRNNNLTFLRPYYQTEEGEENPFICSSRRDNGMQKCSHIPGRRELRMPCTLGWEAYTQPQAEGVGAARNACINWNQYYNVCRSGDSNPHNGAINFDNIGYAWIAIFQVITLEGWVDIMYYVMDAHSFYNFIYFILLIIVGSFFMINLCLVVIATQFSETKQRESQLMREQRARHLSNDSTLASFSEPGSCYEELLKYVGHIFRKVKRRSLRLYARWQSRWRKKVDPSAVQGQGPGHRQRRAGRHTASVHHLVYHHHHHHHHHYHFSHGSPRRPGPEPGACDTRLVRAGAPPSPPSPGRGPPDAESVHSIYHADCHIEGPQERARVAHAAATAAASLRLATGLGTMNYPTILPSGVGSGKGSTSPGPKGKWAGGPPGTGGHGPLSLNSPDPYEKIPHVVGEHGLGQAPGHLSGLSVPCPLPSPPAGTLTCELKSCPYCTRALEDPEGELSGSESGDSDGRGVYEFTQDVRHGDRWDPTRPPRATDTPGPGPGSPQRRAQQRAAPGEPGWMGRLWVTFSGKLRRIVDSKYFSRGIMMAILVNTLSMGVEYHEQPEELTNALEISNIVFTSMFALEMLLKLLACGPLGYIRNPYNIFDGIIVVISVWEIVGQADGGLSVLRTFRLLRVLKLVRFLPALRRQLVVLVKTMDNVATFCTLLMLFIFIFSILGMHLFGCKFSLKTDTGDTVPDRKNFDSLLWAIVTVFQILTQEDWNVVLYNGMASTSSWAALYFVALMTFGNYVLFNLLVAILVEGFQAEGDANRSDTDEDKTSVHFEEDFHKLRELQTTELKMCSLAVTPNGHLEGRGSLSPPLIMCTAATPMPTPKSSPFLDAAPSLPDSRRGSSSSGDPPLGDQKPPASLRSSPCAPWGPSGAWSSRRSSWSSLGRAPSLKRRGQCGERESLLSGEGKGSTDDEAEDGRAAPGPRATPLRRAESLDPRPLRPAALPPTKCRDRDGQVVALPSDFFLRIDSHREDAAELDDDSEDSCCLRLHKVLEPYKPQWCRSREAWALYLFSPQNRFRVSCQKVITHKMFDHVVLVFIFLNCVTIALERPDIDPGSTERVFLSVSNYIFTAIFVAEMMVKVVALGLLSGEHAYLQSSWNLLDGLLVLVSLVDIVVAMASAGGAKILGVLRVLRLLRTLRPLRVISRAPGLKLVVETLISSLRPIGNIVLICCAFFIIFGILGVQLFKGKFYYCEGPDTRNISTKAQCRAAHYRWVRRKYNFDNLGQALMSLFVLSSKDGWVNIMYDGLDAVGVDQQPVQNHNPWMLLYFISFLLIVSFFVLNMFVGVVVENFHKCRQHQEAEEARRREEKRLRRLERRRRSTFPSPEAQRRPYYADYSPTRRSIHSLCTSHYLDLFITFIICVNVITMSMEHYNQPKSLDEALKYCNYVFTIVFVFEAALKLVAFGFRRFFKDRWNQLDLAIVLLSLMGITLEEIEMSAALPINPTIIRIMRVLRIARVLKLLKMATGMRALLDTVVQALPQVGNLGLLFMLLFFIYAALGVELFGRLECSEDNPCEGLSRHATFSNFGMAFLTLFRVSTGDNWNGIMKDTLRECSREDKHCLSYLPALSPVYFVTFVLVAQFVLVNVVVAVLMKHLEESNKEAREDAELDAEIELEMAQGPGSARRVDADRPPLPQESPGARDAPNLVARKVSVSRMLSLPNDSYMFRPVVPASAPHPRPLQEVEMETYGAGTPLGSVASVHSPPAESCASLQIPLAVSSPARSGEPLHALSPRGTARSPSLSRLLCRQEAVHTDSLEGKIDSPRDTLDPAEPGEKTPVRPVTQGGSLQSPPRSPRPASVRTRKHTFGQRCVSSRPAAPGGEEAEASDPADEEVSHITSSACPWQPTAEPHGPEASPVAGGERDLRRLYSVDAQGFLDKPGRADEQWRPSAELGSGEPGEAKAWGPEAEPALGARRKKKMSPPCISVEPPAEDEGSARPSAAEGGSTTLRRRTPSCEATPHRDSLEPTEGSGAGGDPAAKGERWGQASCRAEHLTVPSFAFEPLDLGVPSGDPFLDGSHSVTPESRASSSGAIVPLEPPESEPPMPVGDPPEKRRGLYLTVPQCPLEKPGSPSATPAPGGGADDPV

Structure (SMILES)	IC50 [nM]
N#Cc1cc(Cn2ccc(NC(=O)Cc3ccc(OC4CC(F)(F)C4)cc3)n2)ccc1F [Example 281, N-[1-(3-Cyano-4-fluoro-benzyl)-1H-pyrazol-3-yl]-2-[4-(3,3-difluoro-cyclobutoxy)-phenyl]-acetamide]	21
CC(C)c1ccc(CC(=O)Nc2ccn(Cc3ccc(F)c(C#N)c3)n2)cc1 [Example 282, N-[1-(3-Cyano-4-fluoro-benzyl)-1H-pyrazol-3-yl]-2-(4-isopropyl-phenyl)-acetamide]	12
CC(C)(C)c1ccc(CC(=O)Nc2ccn(Cc3ccc(F)c(C#N)c3)n2)cc1 [Example 283, 2-(4-tert-Butyl-phenyl)-N-[1-(3-cyano-4-fluoro-benzyl)-1H-pyrazol-3-yl]-acetamide]	9.5
N#Cc1ccc(Cn2ccc(NC(=O)Cc3ccc(C4CC(F)(F)C4)cc3)n2)cc1F [Example 288, N-[1-(4-Cyano-3-fluoro-benzyl)-1H-pyrazol-3-yl]-2-[4-(3,3-difluoro-cyclobutyl)-phenyl]-acetamide]	4.7
N#Cc1ccc(Cn2ccc(NC(=O)Cc3ccc(OCC4CC(F)(F)C4)cc3)n2)cc1F [Example 289, N-[1-(4-Cyano-3-fluoro-benzyl)-1H-pyrazol-3-yl]-2-[4-(3,3-difluoro-cyclobutylmethoxy)-phenyl]-acetamide]	23
Cn1ncc2ccc(CC(=O)Nc3ccn(Cc4ccc(C#N)c(F)c4)n3)cc21 [Example 291, N-[1-(4-Cyano-3-fluoro-benzyl)-1H-pyrazol-3-yl]-2-(1-methyl-1H-indazol-6-yl)-acetamide]	80
Cn1ccc2cc(CC(=O)Nc3ccn(Cc4ccc(C#N)c(F)c4)n3)ccc21 [Example 292, N-[1-(4-Cyano-3-fluoro-benzyl)-1H-pyrazol-3-yl]-2-(1-methyl-1H-indol-5-yl)-acetamide]	6.5
Cn1ccc2ccc(CC(=O)Nc3ccn(Cc4ccc(C#N)c(F)c4)n3)cc21 [Example 293, N-[1-(4-Cyano-3-fluoro-benzyl)-1H-pyrazol-3-yl]-2-(1-methyl-1H-indol-6-yl)-acetamide]	6.6
N#Cc1ccc(Cn2ccc(NC(=O)Cc3ccc(N4CCC(F)(F)C4)nc3)n2)cc1F [Example 294, N-[1-(4-Cyano-3-fluoro-benzyl)-1H-pyrazol-3-yl]-2-[6-(3,3-difluoro-pyrrolidin-1-yl)-pyridin-3-yl]-acetamide]	22
Cn1ccc2cc(CC(=O)Nc3ccn(Cc4ccc(C#N)cn4)n3)ccc21 [Example 301, N-[1-(5-Cyano-pyridin-2-ylmethyl)-1H-pyrazol-3-yl]-2-(1-methyl-1H-indol-5-yl)-acetamide]	71
Cn1ccc2ccc(CC(=O)Nc3ccn(Cc4ccc(C#N)cn4)n3)cc21 [Example 302, N-[1-(5-Cyano-pyridin-2-ylmethyl)-1H-pyrazol-3-yl]-2-(1-methyl-1H-indol-6-yl)-acetamide]	39
N#Cc1ccc(Cn2ccc(NC(=O)Cc3ccc(OCC4CC(F)(F)C4)cc3)n2)nc1 [Example 304, N-[1-(5-Cyano-pyridin-2-ylmethyl)-1H-pyrazol-3yl]-2-[4-(3,3-difluoro-cyclobutylmethoxy)-phenyl]-acetamide]	118
N#Cc1ccc(Cn2ccc(NC(=O)Cc3ccc(C4CC(F)(F)C4)cc3)n2)nc1 [Example 305, N-[1-(5-Cyano-pyridin-2-ylmethyl)-1H-pyrazol-3-yl]-2-[4-(3,3-difluoro-cyclobutyl)-phenyl]-acetamide]	29

The next lines start with the values.

IC50 [nM]	Structure (SMILES)
15	N#Cc1ccc(Cn2ccc(NC(=O)Cc3ccc(C4(C(F)(F)F)CC4)cc3)n2)cc1 [Example 277, N-[1-(4-Cyano-benzyl)-1H-pyrazol-3-yl]-2-[4-(1-trifluoromethyl-cyclopropyl)-phenyl]-acetamide]
275	N#Cc1cc(Cn2ccc(NC(=O)Cc3ccc(OCC4COC4)cc3)n2)ccc1F [Example 279, N-[1-(3-Cyano-4-fluoro-benzyl)-1H-pyrazol-3-yl]-2-[4-(oxetan-3-ylmethoxy)-phenyl]-acetamide]
138	CC1(COc2ccc(CC(=O)Nc3ccn(Cc4ccc(F)c(C#N)c4)n3)cc2)COC1 [Example 280, N-[1-(3-Cyano-4-fluoro-benzyl)-1H-pyrazol-3-yl]-2-[4-(3-methyl-oxetan-3-ylmethoxy)-phenyl]-acetamide]
3070	CC1(COc2ccc(CC(=O)Nc3ccn(Cc4ccc(C#N)cn4)n3)cc2)COC1 [Example 284, N-[1-(5-Cyano-pyridin-2-ylmethyl)-1H-pyrazol-3-yl]-2-[4-(3-methyl-oxetan-3-ylmethoxy)-phenyl]-acetamide]
208	CC1(COc2ccc(CC(=O)Nc3ccn(Cc4ccc(C#N)cc4)n3)cc2)COC1 [Example 285, N-[1-(4-Cyano-benzyl)-1H-pyrazol-3-yl]-2-[4-(3-methyl-oxetan-3-ylmethoxy)-phenyl]-acetamide]
393	N#Cc1ccc(Cn2ccc(NC(=O)Cc3ccc(OCC4COC4)cc3)n2)cc1 [Example 286, N-[1-(4-Cyano-benzyl)-1H-pyrazol-3-yl]-2-[4-(oxetan-3-ylmethoxy)-phenyl]-acetamide]
9480	N#Cc1ccc(Cn2ccc(NC(=O)Cc3ccc(OCC4COC4)cc3)n2)nc1 [Example 287, N-[1-(5-Cyano-pyridin-2-ylmethyl)-1H-pyrazol-3-yl]-2-[4-(oxetan-3-ylmethoxy)-phenyl]-acetamide]
39	CC1(COc2ccc(CC(=O)Nc3ccn(Cc4ccc(C#N)c(F)c4)n3)cc2)CC(F)(F)C1 [Example 290, N-[1-(4-Cyano-3-fluoro-benzyl)-1H-pyrazol-3-yl]-2-[4-(3,3-difluoro-1-methyl-cyclobutylmethoxy)-phenyl]-acetamide]
308	Cn1ncc2ccc(CC(=O)Nc3ccn(Cc4ccc(C#N)cc4)n3)cc21 [Example 295, N-[1-(4-Cyano-benzyl)-1H-pyrazol-3-yl]-2-(1-methyl-1H-indazol-6-yl)-acetamide]
17	Cn1ccc2cc(CC(=O)Nc3ccn(Cc4ccc(C#N)cc4)n3)ccc21 [Example 296, N-[1-(4-Cyano-benzyl)-1H-pyrazol-3-yl]-2-(1-methyl-1H-indol-5-yl)-acetamide]
20	Cn1ccc2ccc(CC(=O)Nc3ccn(Cc4ccc(C#N)cc4)n3)cc21 [Example 297, N-[1-(4-Cyano-benzyl)-1H-pyrazol-3-yl]-2-(1-methyl-1H-indol-6-yl)-acetamide]
43	CC1(COc2ccc(CC(=O)Nc3ccn(Cc4ccc(C#N)cc4)n3)cc2)CC(F)(F)C1 [Example 298, N-[1-(4-Cyano-benzyl)-1H-pyrazol-3-yl]-2-[4-(3,3-difluoro-1-methyl-cyclobutylmethoxy)-phenyl]-acetamide]
37	N#Cc1ccc(Cn2ccc(NC(=O)Cc3ccc(OCC4CC(F)(F)C4)cc3)n2)cc1 [Example 299, N-[1-(4-Cyano-benzyl)-1H-pyrazol-3-yl]-2-[4-(3,3-difluoro-cyclobutylmethoxy)-phenyl]-acetamide]
7.5	N#Cc1ccc(Cn2ccc(NC(=O)Cc3ccc(C4CC(F)(F)C4)cc3)n2)cc1 [Example 300, N-[1-(4-Cyano-benzyl)-1H-pyrazol-3-yl]-2-[4-(3,3-difluoro-cyclobutyl)-phenyl]-acetamide]
51	CC1(COc2ccc(CC(=O)Nc3ccn(Cc4ccc(C#N)cn4)n3)cc2)CC(F)(F)C1 [Example 303, N-[1-(5-Cyano-pyridin-2-ylmethyl)-1H-pyrazol-3-yl]-2-[4-(3,3-difluoro-1-methyl-cyclobutylmethoxy)-phenyl]-acetamide]
